This is an account of results in ChEMBL document CHEMBL1147563, “Solid-phase synthesis and SAR of 4-carboxy-2-azetidinone mechanism-based tryptase inhibitors” (Bioorg Med Chem Lett, 2004).

In experiment [1] the target is Coagulation factor X (Homo sapiens, UniProt P00742). In words: Inhibitory activity against Coagulation factor X.
Experiment [2] deals with Plasminogen (Rattus norvegicus, UniProt Q01177). In words: Inhibitory activity against plasmin.
For experiment [3], the target named is Prothrombin (Homo sapiens, UniProt P00734). In words: Inhibitory activity against thrombin.
The target in experiment [4] is Tissue-type plasminogen activator (Homo sapiens, UniProt P00750). Kind of experiment: Inhibitory activity against tissue type plasminogen activator.
Experiment [5] concerns the target Tryptase (Homo sapiens, UniProt Q9BZJ3+Q15661+Q9NRR2). In words: Inhibitory activity against human tryptase.
In experiment [6] the target is T1, Serine protease 1 (Bos taurus, UniProt P00760).
T1 sequence (P00760 whole entry): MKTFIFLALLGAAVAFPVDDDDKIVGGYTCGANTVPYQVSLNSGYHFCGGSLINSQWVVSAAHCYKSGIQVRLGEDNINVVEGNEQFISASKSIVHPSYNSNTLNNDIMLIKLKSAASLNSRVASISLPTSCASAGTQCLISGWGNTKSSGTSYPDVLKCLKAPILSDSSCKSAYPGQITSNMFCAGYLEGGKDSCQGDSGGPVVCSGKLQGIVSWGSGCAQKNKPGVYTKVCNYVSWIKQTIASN
In words: Inhibitory activity against bovine trypsin.

In experiment [7] the target is Serine protease 1 (Homo sapiens, UniProt P07477). In words: Inhibitory activity against trypsin.
In experiment [8] the target is Urokinase-type plasminogen activator (Homo sapiens, UniProt P00749). Kind of experiment: Inhibitory activity against Urokinase-type plasminogen activator.

Sequence of Serine protease 1 (Homo sapiens, UniProt P07477) (P07477 whole entry): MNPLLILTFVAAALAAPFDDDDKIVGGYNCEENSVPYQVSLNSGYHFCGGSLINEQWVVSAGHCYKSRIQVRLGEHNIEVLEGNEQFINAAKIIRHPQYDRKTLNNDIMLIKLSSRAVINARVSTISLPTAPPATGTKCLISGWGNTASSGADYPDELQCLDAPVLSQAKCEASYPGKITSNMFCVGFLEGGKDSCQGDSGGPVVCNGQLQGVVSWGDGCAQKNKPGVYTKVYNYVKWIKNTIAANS
Sequence of Tissue-type plasminogen activator (P00750 whole entry): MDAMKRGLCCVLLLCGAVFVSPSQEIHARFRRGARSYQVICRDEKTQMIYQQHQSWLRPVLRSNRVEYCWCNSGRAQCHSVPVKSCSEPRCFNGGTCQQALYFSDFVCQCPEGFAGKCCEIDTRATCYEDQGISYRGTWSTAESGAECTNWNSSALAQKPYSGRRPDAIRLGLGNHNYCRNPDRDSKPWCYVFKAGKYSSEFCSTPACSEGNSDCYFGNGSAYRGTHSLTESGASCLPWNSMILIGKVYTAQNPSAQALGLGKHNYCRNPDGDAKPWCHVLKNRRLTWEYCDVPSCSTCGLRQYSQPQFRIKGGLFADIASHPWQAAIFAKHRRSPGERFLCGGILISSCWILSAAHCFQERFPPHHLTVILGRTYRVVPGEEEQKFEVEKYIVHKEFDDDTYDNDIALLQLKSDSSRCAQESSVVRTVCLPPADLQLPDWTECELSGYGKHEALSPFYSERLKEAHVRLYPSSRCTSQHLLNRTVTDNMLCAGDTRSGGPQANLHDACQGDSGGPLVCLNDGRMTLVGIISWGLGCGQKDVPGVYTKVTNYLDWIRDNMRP
Sequence of Plasminogen (Q01177 97-581 limits assumed): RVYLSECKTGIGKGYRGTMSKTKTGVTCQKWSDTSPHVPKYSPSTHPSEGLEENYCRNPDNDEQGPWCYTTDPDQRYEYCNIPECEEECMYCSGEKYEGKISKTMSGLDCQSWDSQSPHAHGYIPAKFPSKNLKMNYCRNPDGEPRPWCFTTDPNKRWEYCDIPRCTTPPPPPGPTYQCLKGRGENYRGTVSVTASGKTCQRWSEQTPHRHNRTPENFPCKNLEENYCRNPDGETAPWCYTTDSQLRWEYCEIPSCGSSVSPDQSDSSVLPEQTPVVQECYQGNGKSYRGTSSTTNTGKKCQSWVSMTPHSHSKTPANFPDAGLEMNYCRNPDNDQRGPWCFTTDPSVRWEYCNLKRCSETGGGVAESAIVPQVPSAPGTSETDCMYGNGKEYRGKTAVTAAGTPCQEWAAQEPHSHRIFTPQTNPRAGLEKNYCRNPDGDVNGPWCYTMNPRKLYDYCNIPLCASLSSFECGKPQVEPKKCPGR
Sequence of Plasminogen (Q01177 582-812 limits assumed): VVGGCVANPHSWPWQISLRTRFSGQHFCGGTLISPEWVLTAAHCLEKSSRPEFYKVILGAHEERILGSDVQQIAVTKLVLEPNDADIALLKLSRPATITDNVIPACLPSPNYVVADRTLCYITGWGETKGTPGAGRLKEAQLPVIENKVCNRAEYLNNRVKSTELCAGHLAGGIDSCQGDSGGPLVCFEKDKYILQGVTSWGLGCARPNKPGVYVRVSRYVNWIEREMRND
Sequence of Coagulation factor X (P00742 41-179 limits assumed): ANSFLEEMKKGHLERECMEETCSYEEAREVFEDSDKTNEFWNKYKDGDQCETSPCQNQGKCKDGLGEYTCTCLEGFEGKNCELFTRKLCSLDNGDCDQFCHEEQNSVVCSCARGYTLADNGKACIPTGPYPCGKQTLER
Sequence of Coagulation factor X (P00742 235-488 limits assumed): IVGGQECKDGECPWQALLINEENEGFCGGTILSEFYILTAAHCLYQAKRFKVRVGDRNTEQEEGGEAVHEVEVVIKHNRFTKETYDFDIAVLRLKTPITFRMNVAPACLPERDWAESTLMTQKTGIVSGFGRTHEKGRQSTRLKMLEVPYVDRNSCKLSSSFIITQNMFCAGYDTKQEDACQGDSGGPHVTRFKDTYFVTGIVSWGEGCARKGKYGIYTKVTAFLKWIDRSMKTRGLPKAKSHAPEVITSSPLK

The term IC50 denotes the concentration needed to halve the response being measured. Low values mean greater potency in that assay, high ones weaker potency in that assay. Regarding `CC(C)(C)NC(=O)N1CCN(C(=O)N2C(=O)[C@H](CC3CCNCC3)[C@H]2C(=O)O)CC1`, the concentration for half-maximal inhibition (IC50) in experiment [1] is more than 1100 nM; in experiment [2], 250 nM; in experiment [3], more than 1100 nM; in experiment [4], more than 1100 nM; in experiment [5], 30 nM; in experiment [6], 1900 nM. Further, the IC50 in experiment [7] worked out at 62 nM; in experiment [8] it was 34 nM.
As to `O=C(O)C1[C@@H](CC2CCNCC2)C(=O)N1C(=O)N1CCN(C(=O)Cc2ccc(OCc3ccccc3)cc2)CC1` (single isomer, unassigned), the IC50 in experiment [2] was 380 nM; in experiment [4], more than 33000 nM; in experiment [5], 1 nM; in experiment [6], 440 nM; in experiment [7], 440 nM; in experiment [8], 1210 nM.
Consider `O=C(O)C1[C@@H](CC2CCNCC2)C(=O)N1C(=O)N1CCN(C(=O)CCCCCc2ccccc2)CC1` (single isomer, unassigned), for which the IC50 in experiment [2] was 170 nM; in experiment [4] it was more than 33000 nM; in experiment [6], 310 nM; in experiment [7] it was 310 nM; in experiment [8], 970 nM.
